Patent publication US20090324508A1, “Broad Spectrum and Skin Friendly Disinfecting Composition” (CENTENNIAL VENTURES B.V., priority 2006, published 2009)

Assay: Foam test, dispensing from a foam dispenser
Assay type: physicochemical
Details: in the presence of an alcohol
Protocol: Preferably, the foam booster used in the composition of the invention provides a stable foam when dispensing a composition consisting of 36% (w/w) ethanol and 0.2% (w/w), preferably 0.3% (w/w), of the foam booster from a foam dispenser with a relatively high air to liquid ratio, preferably an air to liquid ratio of 9-11, more preferably an air to liquid ratio of 11, on an inert and smooth surface at about 20° C. A suitable foam pump is for instance the L11 foam pump from Rexam Airspray, which has an air to liquid ratio of 11, a liquid output volume of 0.75 ml, a stroke of 14.8 mm. The foam is optimally produced by applying regular speed and pressure onto the foam dispenser, as is known to one skilled in the art.
According to this invention, a stable foam is a foam that remains as a foam for at least 5-10 seconds, preferably for at least 10-15 seconds, more preferably for at least 15-20 seconds, even more preferably for at least 20-25 seconds, most preferably for at least 25-30 seconds, as measured immediately after dispensing from a foam dispenser as mentioned above.

Row | Molecule | Foam stability as foam booster
1 | sodium lauryl ether sulphate | do not provide a stable foam
2 | CCCCCCCCCCCCc1ccc(S(=O)(=O)O)cc1 [dodecyl benzene sulphonic acid] | do not provide a stable foam
